B1: BMP4: signaling factor (Peprotech) important in neural stem cell differentiation into astrocytes (protein, UniProt P12644 293-408, looked up)
Bone morphogenetic protein 4: SPKHHSQRARKKNKNCRRHSLYVDFSDVGWNDWIVAPPGYQAFYCHGDCPFPLADHLNSTNHAIVQTLVNSVNSSIPKACCVPTELSAISMLYLDEYDKVVLKNYQEMVVEGCGCR
B2: DLL: DLL1 ligand, surface-coated onto tissue culture plastic (protein, UniProt O00548 18-723, looked up)
Delta-like protein 1: QVWSSGVFELKLQEFVNKKGLLGNRNCCRGGAGPPPCACRTFFRVCLKHYQASVSPEPPCTYGSAVTPVLGVDSFSLPDGGGADSAFSNPIRFPFGFTWPGTFSLIIEALHTDSPDDLATENPERLISRLATQRHLTVGEEWSQDLHSSGRTDLKYSYRFVCDEHYYGEGCSVFCRPRDDAFGHFTCGERGEKVCNPGWKGPYCTEPICLPGCDEQHGFCDKPGECKCRVGWQGRYCDECIRYPGCLHGTCQQPWQCNCQEGWGGLFCNQDLNYCTHHKPCKNGATCTNTGQGSYTCSCRPGYTGATCELGIDECDPSPCKNGGSCTDLENSYSCTCPPGFYGKICELSAMTCADGPCFNGGRCSDSPDGGYSCRCPVGYSGFNCEKKIDYCSSSPCSNGAKCVDLGDAYLCRCQAGFSGRHCDDNVDDCASSPCANGGTCRDGVNDFSCTCPPGYTGRNCSAPVSRCEHAPCHNGATCHERGHRYVCECARGYGGPNCQFLLPELPPGPAVVDLTEKLEGQGGPFPWVAVCAGVILVLMLLLGCAAVVVCVRLRLQKHRPPADPCRGETETMNNLANCQREKDISVSIIGATQIKNTNKKADFHGDHSADKNGFKARYPAVDYNLVQDLKGDDTAVRDAHSKRDTKCQPQGSSGEEKGTPTTLRGGEASERKRPDSGCSTSKDTKYQSVYVISEEKDECVIATEV
modifications: surface-coated
notes: DLL1 ligand, surface-coated onto tissue culture plastic

Legend:
[1] = tested on: neural progenitor subpopulation from the ventricular zone (VZ); experiment: High-concentration additional signals on ventricular zone cells: neural progenitor subpopulation aligned to VZ-D0, differential genes by L1-norm; assay type: cell-based, mouse
Description: Having seen that these signals can control population structure, whether these additional signals induced major transcriptional changes in neural stem cells was determined. Further, whether any changes restored the functional defects observed in response to in vitro culture was determined. To learn these transcriptional changes, a new experiment was performed using high concentrations of signaling factors for two reasons: 1) the original combinatorial screen required the cells to be fixed in methanol, which may disrupt gene expression values thus making comparing that data directly to the in vivo data difficult and 2) the original combinatorial screen suffered from low sample number for some of the conditions, due to variation in proliferation rate. This new experiment was performed by adding high concentrations of additional signals (BMP4 (20 ng/mL), CHIR (3 uM), PDGF-AA (20 ng/mL) and DLL1 (surface-coated)) in addition to high concentrations of EGF/FGF immediately after dissociation of cells from the VZ, and all cells were grown for five days in these signal cocktails before profiling.
First, models were built for all of the new samples, aligned each to the VZ-D0 sample (which served as the control), and then only the subpopulations across all samples that aligned to the neural progenitor population were pulled out (FIG. 39B). By plotting the Jeffreys Divergence between these aligned populations (FIG. 39C), all the in vivo populations (E15, E18, and VZ-D0) were seen to be close to each other, while in vitro populations were very distant (VZ-D18 and ivNSC).
To confirm this possibility, the genes that were differentially expressed in the BMP4-, DLL-, PDGF-, and CHIR-containing cells were examined, and these genes were compared to the genes discovered in FIG. 36A-36I. […] By contrast, CHIR only rescued 3 of the lost genes, while DLL and PDGF had only one differentially regulated gene each (FIG. 39D).
Normally in development, these neural progenitors give rise to neurons that form six distinct layers in the cortex. These cortical layers have distinct functions, connectivity patterns, and gene expression patterns, which have been characterized in the literature. The gene expression patterns of these layer-specific genes were examined in neural progenitor populations aligned across all samples (FIGS. 39H-39I). Expression of these genes, while noisy, was very extensive in the in vivo populations, but that culture in vitro erased their expression.
Neuroprogenitors are dissociated from the combined cortex, hippocampus and ventricular zone of E18 mice (Brainbits). After dissociation and resuspension of the cells in NPgrow, cells were counted and plated onto ultra-low attachment 100 mm culture plates (Corning) at one million cells per plate in 10 mL of NPgrow supplemented with 1% Penicillin-Streptomycin. Cells were cultured at 37° C. and 5% CO2 and supplemented medium was changed every 3 to 4 days. In some experiments, subventricular zone (SVZ) stem cells were derived with supplemental factors during derivation. PDGF-AA and BMP4 (Peprotech) were used at […], and 20 ng/mL. CHIR99021 (Stem Cell) was used at 3 uM. DLL1 ligand was coated onto tissue culture plastic for one hour before plating cells.
For each gene, two empirical distributions P1(g), P2(g), one for each subpopulation, were determined. These distributions were discretized over identical histogram binnings, a, over the gene's entire range of expression, Ω. Then the L1 distance was defined as: d=sign(g2−g1)Σa∈Ω∥P1(a)−P2(a)∥1, where g1 and g2 denote the respective means of subpopulations 1 and 2. […] The L1 distance ranged from −2 to +2, both of which corresponded to completely non-overlapping distributions. Genes with L1 distances of high magnitude (≳0.5) always had distributions which, by eye, were in obvious agreement with the labeled directionality. […] Query.

[2] = tested on: neural stem cells / progenitor subpopulations from E18 mouse brain; experiment: Combinatorial signal screen on cells dissociated from the brain: LLR ranking, query, multinomial logistic regression of subpopulation abundances; assay type: cell-based; details: for log-likelihood ratio (LLR) score against control population: control 20 ng/mL EGF/FGF
Description: Next, whether and how signaling interventions can pre-emptively bias the transcriptional state of neural stem cells, potentially restoring lost functionality, were determined. Given the finding that transcriptional changes happened in less than three days after in vitro culture, signals were added immediately after dissociation from the brain. Signals known to be important in neural stem cell differentiation into astrocytes (BMP4), neurons (Wnt pathway through CHIR activation), or oligodendrocytes (PDGF-AA), were chosen. A combinatorial screen, in which these signals were added together with EGF/FGF at varying concentrations to dissociated cells from the brain, were performed. The cells were grown for 5 days before profiling. To profile all of these samples, a multiplexing approach, in which cells were methanol fixed and then covalently labeled with a separate exogenous DNA barcode for each experimental condition, was used. A total of 8691 cells were profiled across 19 conditions [See Methods—Experimental multiplexing using Clicktags in this example].
First, how the populations responded at a high-level were examined by using the PopAlign framework to build new models of populations, and the populations were ranked against a control population using a Log-likelihood ratio score (FIG. 38A). In this case, the control population was defined as the 20 ng/mL EGF/FGF condition, which is the concentration of growth factors normally used to propagate neural stem cells in culture. The log-likelihood ratio score is a single metric that measures the extent to which an entire population model diverges from a control population.
To investigate this more deeply, how the population structure of these progenitor cells responded to the signaling cues was determined. For this analysis the query function [See Methods—Query in this example] of the modeling framework was used to score all cells in each sample using a standard model built from the control population. For this combinatorial screen, some conditions suffered from poor sampling (roughly 100 cells vs. 1000 cells for most samples) due to variation in proliferation rates. Thus, querying all samples using the same model was more robust than building separate models (which can be of poor quality with severe undersampling). The first 3 principal components (PCs) were used as the feature vectors in order to improve the sampling within the gene expression space.
In this new analysis, the population were segmented into more fine-grained subpopulations (FIG. 38B). While there was a committed neuroblast population, the neural progenitor population now split into three subpopulations: (1) a proliferating progenitor (PP) population that actively expressed mitotic genes, (2) a non-proliferating progenitor population (NPP), as well as (3) a basal progenitor (BP) that only expressed the progenitor program (Prog), but not glial genes like ALDOC or SPARCL1. Using the control model, individual cells from each sample were scored and assigned into one of the four subpopulations, and abundances of each individual subpopulation across all experimental samples were (FIG. 38D).
To dissect how the abundances of these individual populations responded to signals, a multinomial logistic regression analysis was performed. Multinomial logistic regression models were used to determine the probability of each cell belonging to one of K mutually exclusive classes (in this case, the four subpopulations defined above) based on m independent predictor variables (in this case, the concentrations of each signal) [See Methods—Multinomial logistic regression in this example].
By examining the regression coefficients β, the relationship between each signal and how the signal regulates the proportions of each cell type can be determined. Importantly, the regression model only computed coefficients for K−1 of the outcome classes, while the K^th class was treated as a reference. […]

[3] = tested on: primary human peripheral blood mononuclear cells (PBMCs); experiment: PBMC signaling experiment: single-cell mRNA-seq with PopAlign alignment to the reference PBMC sample; assay type: cell-based; details: 1 ng/mL, 13 hours
Description: One non-limiting application of PopAlign is to study heterogeneous cell populations in the human body as they respond to environmental change, drug treatments, and disease. The human immune system is an extremely heterogeneous physiological system that is central for disease and cell engineering applications. As a test case, PopAlign was tested for its ability to identify subtype-specific signaling responses in a complex mixture of primary human immune cells. Thus, primary human peripheral blood mononuclear cells (PBMCs) (FIG. 17A) were treated with two lymphokines—granulocyte-macrophage colony-stimulating factor (GM-CSF) (FIG. 17C) and interferon-gamma (IFNG) (FIG. 17D) that are known to have a specific impact on monocytes (See Experimental Methods). […] In the reference PBMCs, five independent cell densities (FIG. 17A) were identified and classified using canonical markers from the literature (FIG. 17B). The signal treated cell-populations (FIGS. 17C-17D) were aligned to the PBMC data (FIG. 17A), finding that, for both signals, the monocyte populations (mixtures PBMC-1, PBMC-3) had the largest shifts in their average gene expression state (|Δμ|>0.04) (FIG. 17F). While T-cell abundances changed (numbers), their mean cell states (μ) had the lowest magnitude of gene expression shift. For immune cell experiments, the independent mixture components were classified as effector T cells (CD3+/CD57+), naive T-cells(CD3+/CD28+), erythrocytes (HBB+), canonical monocytes (CD14+/CD16low), and nonclassical monocytes(CD14low/CD16++) (FIG. 16E). Populations in the test samples—GM-CSF (FIG. 16B) and IFNG (FIG. 15C)—were aligned to the reference populations (control) by finding pairs of components that minimize the Jeffrey's divergence (FIG. 16D). Cryopreserved PBMCs sourced from Hemacare (~10 million cells, source ID: D23127, Lot: 17043194) were thawed in a 37° C. waterbath for 2 minutes after which the cells were transferred to a 15 mL conical tube. Prewarmed RPMI1640 was then added to the 15 mL conical to a final volume of 10 mL and centrifuged for 2 minutes at 300RCF to pellet the cells. Supernatant was removed and cells were resuspended in 10 mL of RPMI1640 supplemented with 10% FBS and 1% pen/strep. The cell suspension was then plated onto a 100 mm low attachment plate and placed in a CO2 incubator at 37° C. for 5 hours for the cells to recover. For each condition, 700,000 cells were aliquoted into a well of a 96 well plate. These cells were cultured for 13 hours under two different conditions: 1) IFN-γ@ 1 ng/mL, 2) GM-CSF 1 ng/mL, each with a single additional replicate. After incubation, the plate was sealed with an aluminum adhesive and centrifuged for 3 minutes at 300RCF. […]

Row | Molecule | log-likelihood ratio (LLR) score against control population ([2]; 5 days) | class of transcriptional (signaling) response of canonical and non-canonical monocytes [3] | gene expression programs altered in monocytes [3] | number of differentially regulated genes ([1]; 5 days with high EGF/FGF) | also measured
1 | Cc1c[nH]c(-c2cnc(NCCNc3ccc(C#N)cn3)nc2-c2ccc(Cl)cc2Cl)n1 [CHIR, CHIR99021, reference compound] | lowest LLR score | – | – | – | number of genes downregulated in ivNSCs that are re-induced (upregulated) by the signal ([1]; of 190 genes downregulated in ivNSCs vs E18 NProgs, 5 days with high EGF/FGF): 3 genes; odds ratio, proliferating progenitors (PP) vs non-proliferating progenitors (NPP) ([2]; per unit of signal (unit = maximum: EGF/FGF 20 ng/mL each, CHIR 3 uM), 5 days): 0.6
2 | GM-CSF: lymphokine signal applied to PBMCs at 1 ng/mL | – | additive | activating a new gene expression program called Chemokine Secretion/Leukocyte Migration pathway | – | –
3 | IFNG: lymphokine signal applied to PBMCs at 1 ng/mL | – | convergent | up-regulation of pathways involved in antigen presentation and phagocytosis | – | –
4 | PDGF | – | – | – | one | odds ratio, basal progenitors vs non-proliferating progenitors ([2]; per unit of signal (PDGF-AA 20 ng/mL), 5 days): 1.75
5 | B1 | lowest LLR score | – | – | – | rescue of expression of cortical layer-specific genes in neural progenitors ([1]; 5 days in culture): only signal that could rescue the expression of these genes; number of genes upregulated in ivNSCs that are suppressed by the signal ([1]; 5 days with high EGF/FGF): 22 genes; Jeffreys Divergence of aligned neural progenitor subpopulation to in vivo populations ([1]; compared to VZ-D5, VZ-D5-CHIR, VZ-D5-DLL, VZ-D5-PDGF): closest to the in vivo populations; committed neuroblasts (CN) proportion of the population ([2]; addition of BMP and low EGF/FGF): ~50%; odds ratio, committed neuroblasts vs non-proliferating progenitors ([2]; per unit of signal (BMP4 20 ng/mL), 5 days): 2.2
6 | B2 | – | – | – | one | –
